Test [1] in a line: Binding affinity was measured on Sigma receptor type 1 using [3H]- pentazocine as radioligand.
Test [2] can be described thus: Binding affinity was measured on Sigma receptor type 2 using [3H]- DTG as radioligand.
Test [3] can be described thus: Binding affinity was measured on Sigma receptor type 1 using [3H]- pentazocine as radioligand. The source holds these as a separate data set.
Test [4] addresses Sigma non-opioid intracellular receptor 1 (Homo sapiens, UniProt Q99720). The test can be described thus: Binding affinity was measured on Sigma receptor type 1 using [3H]- pentazocine as radioligand.

SMILES strings stand for the structures.

Sequence of Sigma non-opioid intracellular receptor 1 (Q99720 whole entry): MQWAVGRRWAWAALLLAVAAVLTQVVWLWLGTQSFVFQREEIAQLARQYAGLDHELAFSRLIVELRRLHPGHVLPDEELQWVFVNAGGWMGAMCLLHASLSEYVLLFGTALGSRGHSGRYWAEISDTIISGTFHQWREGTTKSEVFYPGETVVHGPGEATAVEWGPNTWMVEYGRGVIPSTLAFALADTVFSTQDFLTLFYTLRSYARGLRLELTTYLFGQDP

Usually Ki stands for a measure of affinity in units of concentration, obtained from inhibition or displacement. Low values mean tighter binding, high ones weaker binding. As for `CC1C2Cc3cc(Br)c(O)c(Br)c3C1(C)CCN2Cc1ccccc1` (stereo not given) [3-Benzyl-7,9-dibromo-6,11-dimethyl-1,2,3,4,5,6-hexahydro-2,6-methano-benzo[d]azocin-8-ol], the values for the Ki in test [1] and in test [2] were 70.6 nM and 2010 nM, respectively.
`CC1C2Cc3cc(Cl)c(O)c(Cl)c3C1(C)CCN2Cc1ccccc1` (stereo not given) [3-Benzyl-7,9-dichloro-6,11-dimethyl-1,2,3,4,5,6-hexahydro-2,6-methano-benzo[d]azocin-8-ol]: the inhibitory constant (Ki) in test [2] amounted to 2170 nM; in test [3], 71.5 nM.
For `CC1C2Cc3ccc(O)c(Br)c3C1(C)CCN2Cc1ccccc1` (stereo not given) [3-Benzyl-7-bromo-6,11-dimethyl-1,2,3,4,5,6-hexahydro-2,6-methano-benzo[d]azocin-8-ol], in that order: 346 nM and 1.75 nM.
For `CC1C2Cc3ccc(O)c(Cl)c3C1(C)CCN2Cc1ccccc1` (stereo not given) [3-Benzyl-7-chloro-6,11-dimethyl-1,2,3,4,5,6-hexahydro-2,6-methano-benzo[d]azocin-8-ol], in that order: 764 nM and 1.72 nM.
For `CC1C2Cc3cc(Br)c(O)cc3C1(C)CCN2Cc1ccccc1` (stereo not given) [3-Benzyl-9-bromo-6,11-dimethyl-1,2,3,4,5,6-hexahydro-2,6-methano-benzo[d]azocin-8-ol], the inhibition constant (Ki) in test [2] stood at 1220 nM; in test [3], 68.6 nM.
The corresponding values for `CC1C2Cc3cc(I)c(O)cc3C1(C)CCN2Cc1ccccc1` (stereo not given) [3-Benzyl-9-iodo-6,11-dimethyl-1,2,3,4,5,6-hexahydro-2,6-methano-benzo[d]azocin-8-ol] are 597 nM and 231 nM.
In the case of `CC(C)=CCN1CCC2(C)c3c(cc(Br)c(O)c3Br)CC1C2C` (stereo not given) [7,9-Dibromo-6,11-dimethyl-3-(3-methyl-but-2-enyl)-1,2,3,4,5,6-hexahydro-2,6-methano-benzo[d]azocin-8-ol], the Ki in test [2] amounted to 211 nM; in test [3], 120 nM.
`CC(C)=CCN1CCC2(C)c3c(ccc(O)c3Br)CC1C2C` (stereo not given) [7-Bromo-6,11-dimethyl-3-(3-methyl-but-2-enyl)-1,2,3,4,5,6-hexahydro-2,6-methano-benzo[d]azocin-8-ol]: the Ki was 283 nM in test [2] and 2.49 nM in test [3].
For `CC(C)=CCN1CCC2(C)c3c(ccc(O)c3Cl)CC1C2C` (stereo not given) [7-Chloro-6,11-dimethyl-3-(3-methyl-but-2-enyl)-1,2,3,4,5,6-hexahydro-2,6-methano-benzo[d]azocin-8-ol], in that order: 4960 nM and 2.62 nM.
For `CC(C)=CCN1CCC2(C)c3cc(O)c(Br)cc3CC1C2C` (stereo not given) [9-Bromo-6,11-dimethyl-3-(3-methyl-but-2-enyl)-1,2,3,4,5,6-hexahydro-2,6-methano-benzo[d]azocin-8-ol], the Ki in test [4] was found to be 144 nM. That is a sub-micromolar value.
The same measure, in the same setting: to `CC(C)=CCN1CCC2(C)c3cc(O)c(I)cc3CC1C2C` (stereo not given) [9-Iodo-6,11-dimethyl-3-(3-methyl-but-2-enyl)-1,2,3,4,5,6-hexahydro-2,6-methano-benzo[d]azocin-8-ol] belongs 35.2 nM.

These data come from BindingDB's records for doi:10.1021/jm00015a023 (Research Triangle Institute, 1995).
